Reference: patent US12251373B2, “Compounds and methods of treating retinal degeneration” (CASE WESTERN RESERVE UNIVERSITY, priority 2017, dated 2025)

Columns and labels:
[1] = Metabolic stability in human liver microsomes; type: in vitro ADME; settings: 5 μM, with NADPH, vs verapamil
Experimental: A standard metabolic stability assay was performed in the presence of mouse or human liver microsomes. YC-001 (5 μM) was incubated with the microsomes (0.125 mg mL^−1) resuspended in 0.2 mL of PBS buffer, pH 7.4 composed of 10 mM Na2HPO4, 1.8 mM KH2PO4, 137 mM NaCl, and 2.7 mM KCl. The enzymatic reaction to produce oxidized metabolites was initiated by addition of NADPH (1 mM). Samples were incubated at 37° C. for up to 240 min. Incubation without the cofactor was conducted in parallel to assess NADPH-independent clearance. The reactions were stopped with 0.2 mL of methanol followed by 0.3 mL chloroform. Residual YC-001 was extracted by vigorous shaking. To facilitate phase separation, the samples were spun down for 2 min, 15,000×g. The chloroform fraction was collected, dried down, and the extracted organic compounds were redissolved in 0.2 mL of methanol. To quantify YC-001, the samples were injected onto an Eclipse XDB-C18 column (4.6×150 mm, 5 μm) (Agilent Technologies) equilibrated with solvent composed of 30% acetonitrile in water (v/v), and 0.1% formic acid. YC-001 was eluted in a gradient of acetonitrile in water (30-100%) developed within 15 min at a flow rate of 1 mL min^−1, detected at 350 nm, and quantified by correlating peak areas with known quantities of an original synthetic standard. […]

human clarin-1 N48K = target: T1, human clarin-1 N48K (Homo sapiens, UniProt P58418, N48K); assay: Image-based analysis of clarin-1 N48K-Venus in HEK 293 cells; type: cell-based
T1 sequence (P58418 1-232 N48K): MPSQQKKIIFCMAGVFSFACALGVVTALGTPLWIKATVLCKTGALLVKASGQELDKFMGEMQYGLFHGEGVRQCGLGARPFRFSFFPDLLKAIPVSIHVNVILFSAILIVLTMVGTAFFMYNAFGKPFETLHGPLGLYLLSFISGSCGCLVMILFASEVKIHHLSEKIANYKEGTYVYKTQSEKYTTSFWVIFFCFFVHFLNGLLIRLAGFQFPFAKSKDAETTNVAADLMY
Experimental: HEK 293 stable cells co-expressing human clarin-1 N48K-Venus fluorescent protein and DsRed-Express-DR fusion protein were obtained from Dr. Yoshikazu Imanishi at Case Western Reserve University (CWRU). Cells were cultured in DMEM medium with 10% FBS following guidelines from ATCC. To test effects of YC-001 treatments on clarin-1 N48K-Venus amounts in these cells, an image-based assay was performed. Briefly, cells were seeded at 20,000 cells per well in 40 μL per well DMEM medium with 10% FBS in a 384-well PerkinElmer View plate coated with poly-D-lysine and cultured at 37° C. with 5% CO2 for 24 h. Cells then were treated with 10 μL per well DMEM medium with 10% FBS containing 5× the final concentration of tested compounds. […] Each compound was tested with 10 doses in a 2-fold dilution series, featuring 3 biological replicates. The 384-well plate was put back for incubation at 37° C. with 5% CO2. After 24 h of exposure to test compounds, the plate was removed, and the medium was aspirated and replaced by 20 μL per well of 4% paraformaldehyde for fixation at RT for 20 min. […] Images were analyzed by the Columbus storage and analysis system (Perkin Elmer). Hoechst33342 fluorescence images were used to define nuclei and count cells. […] YFP and DsRed fluorescence intensities per cell were measured in each well.

Compound: O=C1OCC(c2ccc(Cl)s2)=C1c1cccs1 [YC-001]
- initial clearance in liver microsomes [1]: even higher initial clearance
- amount or stability of the clarin-1 N48K mutant (human clarin-1 N48K): did not affect the amount or stability
